Results published in patent US20150190416A1, “FILAGGRIN PRODUCTION PROMOTER, THERAPEUTIC AGENT FOR DISEASES ASSOCIATED WITH REDUCTION IN PRODUCTION OF FILAGGRIN, AND METHOD FOR SCREENING FOR SAID THERAPEUTIC AGENT” (KYOTO UNIVERSITY, priority 2012, published 2015).

Assays:
[1] = test system: GPR22 mRNA; test: GPR22 mRNA expression in NHEK cells, real-time PCR (Example 4); format: cell-based, human; details: Compound 1 1 μM, 3 days
Method: In this example, the expression-inducing effects of Compound 1 on GPR142 mRNA and GPR22 mRNA in NHEK cells were confirmed.
(§1) 1) 5×10^4 cells/well of NHEK cells (Invitrogen) were plated on a 24-well plate. Then, 500 μl of a culture medium containing a medium for proliferating normal human epidermal keratinocytes (HuMedia-KG2, KURABO INDUSTRIES LTD.) supplemented with hEGF (0.1 ng/ml), insulin (10 μg/ml), hydrocortisone (0.5 μg/ml), gentamycin (50 μg/ml), amphotericin B (50 ng/ml), and bovine brain pituitary extract (BPE) (0.4%, v/v) were added to the plate, and the cells were cultured under the conditions of 37° C. and 5% CO2.
2) After culture under the conditions of the step 1) for 1 day, the medium was exchanged for the culture medium of the step 1) to which a DMSO solution of Compound 1 was added at 1 μM per well every day and the culture was conducted for 3 days. […]
3) An extraction reagent (TRIzol™, Invitrogen) was used, and according to the manufacturer's protocol, total RNA was extracted from each of cells treated with the medicament. […] Next, real-time PCR was conducted by using the following primers and SYBR™ Premix Ex Taq (Takara) with a CFX96 real-time PCR instrument according to the manufacturer's protocol, and the amounts of GPR142mRNA and GPR22mRNA expression were measured. […]

[2] = test system: FLG monomer; test: FLG monomer in FLG gene mutant mice (flaky tail mice), Western blotting (Example 13); format: in vivo, mouse; details: 1 μM 10 μl/ear intradermally, ear epidermis after 8 days
Method: In this example, the expression-increasing effect of Compound 1 (N-quinolylbenzamide derivative) on FLG monomer was confirmed by using FLG gene homozygous or heterozygous mutant mouse (Jackson Laboratory, flaky tail mice). The expression of the FLG protein was confirmed by Western blotting.
1) Compound 1 (1 μM) dissolved in ultrapure water (milliQ, EMD Millipore) was injected intradermally to left and right ears of an FLG homozygous or heterozygous mutant mouse (10 μl/ear). As a control, ultrapure water (milliQ, EMD Millipore) was injected intradermally in the same manner.
2) After 3 days, Compound 1 or ultrapure water was further injected intradermally in the same manner.
3) After 8 days, ears of each mouse were cut under anesthesia, the skin of the cut ear was peeled off by pinching cartilage, and the skin on the dermal side was soaked in PBS containing 20 mM EDTA at 37° C. for 30 minutes. Next, the epidermis of the ear was peeled off and […] of Lysis buffer (0.1 M Tris-HCl (pH 9.0), 6 M Urea, 1% 2-mercapto-ethanol, 1% SDS, 1 mM EDTA, and Protease inhibitor cocktail) were added to the epidermis, and the epidermis was homogenized with an electrically powered pestle in the same manner as in the step 4) of Example 11 to prepare a sample. The sample was subjected to electrophoresis, and then to western blotting to confirm the expression of FLG monomer. […]

[3] = test system: GPR142; test: FLG mRNA and GPR142 mRNA in GPR142-overexpressing NHEK cells (Example 7); format: cell-based, human; details: 10 nM, 1 day
Method: In this example, the FLG mRNA expression-inducing effect of Compound 1 in GPR142-overexpressing NHEK cells was confirmed.
as §1, with “Then,” for “Then, 500 μl of”, “v/v) was” for “v/v) were”
2) A GPR142pCXN mammalian expression vector was prepared by incorporating a human GPR142 gene coding region containing the base sequence set forth in SEQ ID NO: 2 into the EcoRI restriction site of the cloning site in a mammalian expression vector pCXN (Gene 108: 193-199 (1991)). […]
5) An extraction reagent (TRIzol™, Invitrogen) was used, and according to the manufacturer's protocol, total RNA was extracted from each of cells treated with the medicament. […] Real-time PCR was conducted by using the same primers as those for GPR142, FLG, and GAPDH used in Example 4 and SYBR™ PremixEx Taq (Takara) with a CFX96 real-time PCR instrument according to the manufacturer's protocol, and the amounts of GPR142 mRNA and FLG mRNA were measured. […]

Structure (SMILES): CCc1ccc(OCc2ccccc2C(=O)Nc2ccc3nc(C)cc(N)c3c2)cc1.Cl [Compound 1, N-(4-Amino-2-methyl-6-quinolyl)-2-[(4-ethylphenoxy)methyl]benzamide hydrochloride]
- GPR22 mRNA expression (GAPDH ratio) [1]: induced GPR22 mRNA expression
- production of FLG monomer ([2]; FLG heterozygous mutant mouse): production of the FLG monomer caused by Compound 1 was confirmed
- production of FLG monomer ([2]; FLG homozygous mutant mouse): production of the FLG monomer was not observed
- FLG mRNA expression (GAPDH ratio) ([3]; GPR142-overexpressing NHEK cells): increased FLG mRNA expression
- expression amount of GPR142 mRNA, increase as compared to the control ([3]; NHEK cells): about 2.2 times
